Read-outs that look alike come from different tables or passages of the source.
Legend:
PrP^sc = format: biochemical, bovine; details: for location of PrP^sc bands (starting supernatant or pellet) after centrifugation: 2.5, 5, 10 mg added to 50 μl PrP^sc sample, 37° C. 1 h; for location of PrP^sc bands (starting supernatant or pellet) after centrifugation / crosslinking and precipitation of PrP: FIG. 4; for crosslinking and precipitation of PrP: simple centrifuge, no ultracentrifugation
PrP^res = format: biochemical, human

CN[C@@H]1[C@H](O[C@H]2[C@H](O[C@H]3[C@H](O)[C@@H](O)[C@H](NC(=N)N)[C@@H](O)[C@@H]3NC(=N)N)O[C@@H](C)[C@]2(O)CO)O[C@@H](CO)[C@H](O)[C@H]1O [dihydrostreptomycin sesquisulfate]
location of PrP^sc bands (starting supernatant or pellet) after centrifugation (PrP^sc; 12 000 rpm 5 min): the PrP^sc material is found in the pellet
crosslinking and precipitation of PrP (PrP^sc): induces crosslinking of PrP which allows complete precipitation thereof

heparin
sensitivity and specificity of detection of PrP^res of lymphoid origin in blood samples (PrP^res): confirms the sensitivity and the specificity of detection of PrP^res

[H]/N=C(/N)N[C@H]1[C@H](O)[C@@H](O)[C@H](O[C@@H]2O[C@@H](C)[C@](O)(C=O)[C@H]2O[C@@H]2O[C@@H](CO)[C@H](O)[C@@H](O)[C@@H]2NC)[C@@H](N/C(N)=N\[H])[C@@H]1O [streptomycin]
location of PrP^sc bands (starting supernatant or pellet) after centrifugation (PrP^sc; 12 000 rpm 5 min): the PrP^sc material is found in the pellet
crosslinking and precipitation of PrP (PrP^sc): induces crosslinking of PrP which allows complete precipitation thereof

NCCNCCNCCN [triethylenetetramine]
apparent molecular mass of the prion protein bands compared to a control without molecule (PrP^sc; 105-840 μg TET added to 5 μl PrP^sc (250 μg brain), supernatant, FIG. 5): induces an increase in the apparent molecular mass of the prion protein
crosslinking of PrP versus dose (PrP^sc; 105-840 μg TET, FIG. 5): a crosslinking of PrP proportional to the dose of TET

NCCCNCCCN [bis-3-aminopropylamine]
apparent molecular mass of the prion protein bands compared to a control without molecule (PrP^sc; 130-1040 μg added to 5 μl PrP^sc, 30 min room temperature, pellet supernatant, FIG. 6): induces an increase in the apparent molecular mass of the 3 prion protein bands
precipitation of the prion protein on centrifugation (PrP^sc; 130-1040 μg, 12 000 rpm 5 min, FIG. 6): the prion protein precipitates
